Source: ChEMBL document CHEMBL1201862, “PubChem BioAssay data set” (2004)
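How tested: cells in 96-well plates exposed to compound for 48 hours at five concentrations. The concentration for 50% growth inhibition is given as GI50.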 Activity calls are given as the source filed them. Cut-off read from the data, not from the text of the source: active = GI50 up to about 1.1 µM and inactive = higher.

Key:
Assay in all cases: NCI anticancer screen, dose series, 48 h
[1] = test system: SF-539
[2] = test system: OVCAR-5
[3] = test system: RXF 393
[4] = test system: IGROV-1
[5] = test system: UACC-257
[6] = test system: EKVX
[7] = test system: HOP-92
[8] = test system: OVCAR-3
[9] = test system: HOP-62
[10] = test system: ACHN
[11] = test system: HCC 2998
[12] = test system: Malme-3M
[13] = test system: SNB-19
[14] = test system: SK-OV-3
[15] = test system: NCI-H522
[16] = test system: U-251
[17] = test system: DU-145
[18] = test system: PC-3

Measured: GI50

CN(CCc1ccccn1)/[N+]([O-])=N/O.CNCCc1ccccn1
inactive: [1] > 100 µM | [2] > 100 µM | [3] > 100 µM | [4] > 100 µM | [5] > 100 µM | [6] > 100 µM | [7] > 100 µM | [8] > 100 µM | [9] > 100 µM | [10] > 100 µM | [11] > 100 µM | [12] > 100 µM | [13] > 100 µM

CCCCCCCCCCCCCCCCOCC(CN(C)CCN(C)C)OCCCCCCCCCCCCCCCC (stereo not given)
inactive: [14] > 100 µM | [2] > 100 µM | [3] > 100 µM | [4] > 100 µM | [15] > 100 µM | [5] > 100 µM | [6] > 100 µM | [7] > 100 µM | [8] > 100 µM | [16] > 100 µM | [9] > 100 µM | [10] > 100 µM | [11] > 100 µM | [12] > 100 µM | [13] > 100 µM

CC(=O)Nc1nnc(S(C)(=O)=O)s1
inactive: [1] > 100 µM | [2] > 100 µM | [3] > 100 µM | [5] > 100 µM | [6] > 100 µM | [7] > 100 µM | [8] > 100 µM | [16] > 100 µM | [9] > 100 µM | [10] > 100 µM | [17] > 100 µM | [18] > 100 µM | [12] > 100 µM | [13] > 100 µM

Cc1ccc(S(=O)(=O)NC(=O)NC23CC4CC(CC(F)(C4)C2)C3)cc1
inactive: [1] > 100 µM | [14] > 100 µM | [2] > 100 µM | [3] > 100 µM | [4] > 100 µM | [15] > 100 µM | [5] > 100 µM | [6] > 100 µM | [7] > 100 µM | [8] > 100 µM | [16] > 100 µM | [9] > 100 µM | [10] > 100 µM | [11] > 100 µM | [12] > 100 µM | [13] > 100 µM

Clc1ccc(-n2nnc(C3=NCCN3)c2-c2ccccc2)cc1
inactive: [1] > 100 µM | [14] > 100 µM | [2] > 100 µM | [3] > 100 µM | [4] > 100 µM | [15] > 100 µM | [5] > 100 µM | [6] > 100 µM | [7] 68.7 µM | [8] > 100 µM | [16] > 100 µM | [9] > 100 µM | [10] > 100 µM | [11] > 100 µM | [12] > 100 µM | [13] > 100 µM

C=C(C)C1Cc2c(cc(OC)c3c(=O)c4ccccc4n(C)c23)O1 (stereo not given)
inactive: [1] > 100 µM | [14] > 100 µM | [2] > 100 µM | [3] > 100 µM | [4] > 100 µM | [15] 18.3 µM | [5] > 100 µM | [6] > 100 µM | [7] > 100 µM | [8] > 100 µM | [16] > 100 µM | [9] > 100 µM | [10] 58.3 µM | [11] > 100 µM | [12] > 100 µM | [13] > 100 µM

COc1cc(CC2c3cc(OC)c(OC)cc3CCN2C)ccc1O (stereo not given)
inactive: [1] > 100 µM | [2] > 100 µM | [15] > 100 µM | [5] > 100 µM | [6] > 100 µM | [8] > 100 µM | [16] > 100 µM | [9] > 100 µM | [10] > 100 µM | [11] > 100 µM | [12] > 100 µM | [13] > 100 µM

O=C1[C@H]2ON(c3ccccc3)C(c3ccc(Cl)cc3Cl)[C@H]2C(=O)N1c1ccc(Cc2ccc(N3C(=O)[C@@H]4ON(c5ccccc5)C(c5ccc(Cl)cc5Cl)[C@@H]4C3=O)cc2)cc1 (stereo not given in full)
inactive: [1] > 100 µM | [14] > 100 µM | [2] > 100 µM | [4] > 100 µM | [15] > 100 µM | [5] > 100 µM | [6] > 100 µM | [7] > 100 µM | [8] > 100 µM | [16] > 100 µM | [9] > 100 µM | [10] > 100 µM | [11] > 100 µM | [12] 96.8 µM | [13] > 100 µM

O[C@]12c3ccccc3C1CCCC2N1CCOCC1 (stereo not given in full)
inactive: [14] > 100 µM | [3] > 100 µM | [15] > 100 µM | [5] > 100 µM | [6] > 100 µM | [16] > 100 µM | [9] > 100 µM | [10] > 100 µM | [12] > 100 µM | [13] > 100 µM

O=C(c1ccc(Cl)cc1)c1ccc(OCCCOc2ccc(C(=O)c3ccc(Cl)cc3)cc2Cl)c(Cl)c1
inactive: [1] > 100 µM | [14] > 100 µM | [2] > 100 µM | [3] > 100 µM | [4] > 100 µM | [15] > 100 µM | [5] > 100 µM | [6] > 100 µM | [7] > 100 µM | [8] > 100 µM | [16] > 100 µM | [9] > 100 µM | [10] > 100 µM | [11] > 100 µM | [12] > 100 µM | [13] > 100 µM

CSc1n[n+]2c(s1)SCCC2
inactive: [1] > 100 µM | [2] > 100 µM | [3] > 100 µM | [4] 25.8 µM | [15] 26.9 µM | [5] > 100 µM | [7] > 100 µM | [8] > 100 µM | [16] > 100 µM | [9] 95.5 µM | [10] > 100 µM | [11] > 100 µM | [12] > 100 µM | [13] > 100 µM

COC(=O)C(C(=O)C(=O)Nc1ccc(OC)cc1[N+](=O)[O-])c1nc2cc(C)c(C)cc2nc1O (stereo not given)
inactive: [1] > 100 µM | [14] > 100 µM | [3] > 100 µM | [4] > 100 µM | [15] > 100 µM | [5] > 100 µM | [6] 74.6 µM | [7] > 100 µM | [8] > 100 µM | [16] > 100 µM | [9] > 100 µM | [10] > 100 µM | [11] > 100 µM | [12] > 100 µM | [13] > 100 µM

CCCCCCCCCCCCCCCCCC(=O)O[C@H](COC(=O)CCCCCCCCCCC)COC(=O)CCCCCCCCCCCCCCC
inactive: [14] > 100 µM | [2] > 100 µM | [4] > 100 µM | [5] > 100 µM | [7] > 100 µM | [8] > 100 µM | [16] > 100 µM | [9] > 100 µM | [10] > 100 µM | [11] > 100 µM | [12] > 100 µM | [13] > 100 µM

CC(=O)COC(=O)CC(C)=O
inactive: [1] > 100 µM | [14] > 100 µM | [2] > 100 µM | [3] > 100 µM | [4] > 100 µM | [15] > 100 µM | [5] > 100 µM | [6] > 100 µM | [8] > 100 µM | [16] > 100 µM | [9] > 100 µM | [10] > 100 µM | [11] > 100 µM | [12] > 100 µM | [13] > 100 µM

C/C(=N\N=C(N)N)c1sc(-c2nc(C)c(/C(C)=N/N=C(N)N)s2)nc1C
inactive: [1] > 100 µM | [14] > 100 µM | [2] > 100 µM | [3] > 45.4 µM | [4] > 100 µM | [15] 36 µM | [5] > 100 µM | [6] > 100 µM | [7] > 100 µM | [8] > 85.5 µM | [16] > 95.3 µM | [9] > 100 µM | [10] > 100 µM | [11] > 100 µM | [12] > 100 µM | [13] > 100 µM

NS(=O)(=O)c1ccc(Nc2c3ccccc3nc3c(C(=O)N4CCN(CCO)CC4)cccc23)cc1
inactive: [1] > 100 µM | [14] > 100 µM | [2] > 100 µM | [3] > 100 µM | [4] > 100 µM | [15] 80.9 µM | [5] > 100 µM | [6] > 100 µM | [7] > 100 µM | [8] > 100 µM | [16] > 100 µM | [9] > 100 µM | [10] > 100 µM | [11] > 100 µM | [12] > 100 µM | [13] > 100 µM

CCCCCCCCCCSC(=O)NC
inactive: [1] 35.3 µM | [14] > 100 µM | [2] 80.9 µM | [3] 19.9 µM | [4] 79.8 µM | [15] 21.3 µM | [5] 27.9 µM | [6] 27.2 µM | [7] 18.6 µM | [8] 54.2 µM | [16] 25.8 µM | [10] 40.4 µM | [11] 47.2 µM | [12] 36.3 µM | [13] 28.8 µM

COc1cc2c(cc1OC)[C@H]1C(COC(=O)Nc3ccccc3)CN1CC2 (stereo not given in full)
inactive: [1] > 100 µM | [14] > 100 µM | [2] > 100 µM | [3] 58.5 µM | [4] > 100 µM | [15] > 100 µM | [7] 69.3 µM | [8] > 100 µM | [16] > 100 µM | [9] > 100 µM | [10] > 100 µM | [11] 67.6 µM | [12] > 100 µM | [13] > 100 µM
